# Source: ChEMBL document CHEMBL5576081, “Exploring the structural activity relationship of the Osimertinib: A covalent inhibitor of double mutant EGFRL858R/T790M tyrosine kinase for the treatment of Non-Small Cell Lung Cancer (NSCLC)” (Bioorg Med Chem, 2024)
# How the values were obtained:
# PC-9 [1] = assay: Antiproliferative activity against human PC-9 cells harboring EGFR Del19 mutant assessed as inhibition of cell growth incubated for 72 hrs by CCK8 assay; format: functional, cell-based; settings: PC-9, 72 h
# LoVo [2] = assay: Antiproliferative activity against human LoVo cells harboring wild-type EGFR assessed as reduction in cell growth incubated for 72 hrs by CCK8 assay; format: functional, cell-based
# NCI-H1975 = assay: Antiproliferative activity against human NCI-H1975 cells harboring EGFR L858R/T790M double mutant assessed as reduction in cell growth incubated for 72 hrs by CellTiter-Glo luminescent assay; format: functional, cell-based; settings: NCI-H1975, 72 h
# LoVo [3] = assay: Antiproliferative activity against human LoVo cells harboring wild-type EGFR assessed as reduction in cell viability; format: functional, cell-based
# PC-9 [4] = assay: Antiproliferative activity against human PC-9 cells harboring EGFR del19 mutant assessed as cell growth inhibition incubated for 72 hrs by CellTiter Glo assay; format: functional, cell-based; settings: PC-9, 72 h
# [5] = biological target: Epidermal growth factor receptor (Homo sapiens, UniProt P00533, L858R/T790M); assay: Inhibition of EGFR L858R/T790M (unknown origin)
# [6] = Antiproliferative activity against mouse Ba/F3 EGFR-T790M/L858R cells incubated for 3 days by Cell Titer-Glo assay; format: functional, cell-based; settings: 72 h
# [7] = Antiproliferative activity against mouse KC-0116 cells; format: toxicity, cell-based
# Chain of Epidermal growth factor receptor (P00533 25-1210 T790M/L858R limits assumed): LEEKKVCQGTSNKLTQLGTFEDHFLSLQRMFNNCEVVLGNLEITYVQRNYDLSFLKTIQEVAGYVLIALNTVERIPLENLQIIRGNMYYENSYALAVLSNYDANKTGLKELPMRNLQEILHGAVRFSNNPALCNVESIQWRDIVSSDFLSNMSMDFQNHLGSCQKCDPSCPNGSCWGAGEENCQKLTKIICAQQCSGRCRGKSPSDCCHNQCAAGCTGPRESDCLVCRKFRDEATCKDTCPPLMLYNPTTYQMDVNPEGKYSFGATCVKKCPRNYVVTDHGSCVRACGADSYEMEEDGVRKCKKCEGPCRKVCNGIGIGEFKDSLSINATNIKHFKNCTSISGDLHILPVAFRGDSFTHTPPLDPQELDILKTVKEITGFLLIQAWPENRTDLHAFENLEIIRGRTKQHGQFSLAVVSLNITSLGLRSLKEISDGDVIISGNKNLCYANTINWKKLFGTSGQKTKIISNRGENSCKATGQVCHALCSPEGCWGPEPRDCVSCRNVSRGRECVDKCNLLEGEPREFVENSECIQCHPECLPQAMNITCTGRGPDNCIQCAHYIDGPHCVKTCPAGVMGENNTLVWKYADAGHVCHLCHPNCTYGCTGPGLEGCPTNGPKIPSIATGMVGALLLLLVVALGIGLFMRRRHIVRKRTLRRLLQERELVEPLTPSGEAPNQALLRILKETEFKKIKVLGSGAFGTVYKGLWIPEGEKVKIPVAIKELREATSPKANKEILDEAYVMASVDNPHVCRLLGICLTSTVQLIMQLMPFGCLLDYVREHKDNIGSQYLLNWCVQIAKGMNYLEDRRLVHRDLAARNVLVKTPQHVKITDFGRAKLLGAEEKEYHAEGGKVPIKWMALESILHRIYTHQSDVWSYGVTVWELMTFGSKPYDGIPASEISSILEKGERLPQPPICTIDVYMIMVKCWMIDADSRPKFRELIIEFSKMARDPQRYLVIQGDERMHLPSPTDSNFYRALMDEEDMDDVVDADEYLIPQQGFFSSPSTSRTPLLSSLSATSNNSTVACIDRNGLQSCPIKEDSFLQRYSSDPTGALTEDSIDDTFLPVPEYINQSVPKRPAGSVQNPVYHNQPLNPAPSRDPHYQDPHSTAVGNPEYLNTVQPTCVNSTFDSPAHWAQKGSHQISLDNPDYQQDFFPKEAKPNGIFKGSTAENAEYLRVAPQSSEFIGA
Structure (SMILES),IC50 (PC-9 [1]) [nM],IC50 (LoVo [2]) [nM],IC50 (NCI-H1975) [nM],IC50 [5] [nM],further results
C=CC(=O)Nc1cc(Nc2ncc(Cl)c(-c3cnn4ccccc34)n2)c(OC)cc1N1CCN(C(=O)CN(C)C)CC1,73,10000,16,,
C=CC(=O)Nc1cc(Nc2ncc(Cl)c(-c3cnn4ccccc34)n2)c(OC)cc1N1CCN(C(=O)[C@H](C)N)CC1,28,1600,19,,
C=CC(=O)Nc1cc(Nc2ncc(Cl)c(-c3cnn4ccccc34)n2)c(OC)cc1N1CCN(C(=O)CNC)CC1,156,7500,66,,
C=CC(=O)Nc1cc(Nc2ncc(Cl)c(-c3cnn4ccccc34)n2)c(OC)cc1N1CCN(C(=O)[C@H](C)O)CC1,179,10300,75,,
C=CC(=O)Nc1cc(Nc2ncc(Cl)c(-c3cnn4ccccc34)n2)c(OC)cc1N1CCN(C(=O)[C@@H](C)N)CC1,351,9000,177,,
C=CC(=O)Nc1cc(Nc2ncc(Cl)c(-c3cnn4ccccc34)n2)c(OC)cc1N1CC[C@@H](N(C)C)C1,16,3360,2,,
C=CC(=O)Nc1cc(Nc2ncc(Cl)c(-c3cnn4ccccc34)n2)c(OC)cc1N(C)CCN(C)C,2,145,0.6,,
C=CC(=O)Nc1cc(Nc2ncc(Cl)c(-c3cnn4ccccc34)n2)c(OC)cc1N1CC(N(C)C)C1,21,938,,,
C=CC(=O)Nc1cc(Nc2ncc(C#N)c(-c3cn(C)c4ccccc34)n2)c(OC)cc1N(C)CCN(C)C,,,0.9,,IC50 (LoVo [3]): 46 nM; IC50 (PC-9 [4]): 2 nM
C=CC(=O)Nc1cc(Nc2ncc(Cl)c(-c3cn(C)c4ccccc34)n2)c(OC)cc1N(C)CCN(C)C,,,2,,IC50 (LoVo [3]): 58 nM; IC50 (PC-9 [4]): 2 nM
C=CC(=O)Nc1cc(Nc2ncc(Cl)c(-c3c[nH]c4ccccc34)n2)c(OC)cc1N(C)CCN(C)C,,,0.2,,IC50 (LoVo [3]): 11 nM; IC50 (PC-9 [4]): 0.6 nM
C=CC(=O)Nc1cc(Nc2ncc(C)c(-c3cn(C)c4ccccc34)n2)c(OC)cc1N(C)CCN(C)C,,,1,,IC50 (LoVo [3]): 71 nM
C=CC(=O)Nc1cc(Nc2nccc(-c3c[nH]c4ccccc34)n2)c(OC)cc1N(C)CCN(C)C,,,2,,IC50 (LoVo [3]): 33 nM; IC50 (PC-9 [4]): 2 nM
C#CCN(C)CCN(C)c1cc(OC)c(Nc2nccc(Nc3ccn(C)n3)n2)cc1NC(=O)C=C,,,,8.58,
C=CC(=O)Nc1cc(Nc2nccc(Nc3ccn(C)n3)n2)c(OC)cc1N(C)CCN(C)C,,,,6.1,
C=CC(=O)Nc1cc(Nc2nccc(Nc3ccn(C)n3)n2)c(OC)cc1N(C)CCN(C)CC(=O)OC,,,,42.3,
C=CC(=O)Nc1cc(Nc2nccc(Nc3cnn(CC)c3)n2)c(OC)cc1N(C)CCN(C)C,,,,8,
COc1cc(N(C)CCN(C)C)c(NC(=O)c2ccnc(Cl)c2)cc1Nc1nccc(-c2cn(CCCO)c3ccccc23)n1,,,,137,
COc1cc(N(C)CCN(C)C)c(NC(=O)c2cnccn2)cc1Nc1nccc(-c2cn(C)c3ccccc23)n1,,,,> 500,
COc1cc(N(C)CCN(C)C)c(NC(=O)c2ccncc2OC)cc1Nc1nccc(-c2cn(C)c3ccccc23)n1,,,,> 500,
COc1cc(N(C)CCN(C)C)c(NC(=O)c2ncccn2)cc1Nc1nccc(-c2cn(C)c3ccccc23)n1,,,,> 500,
COc1cc(N(C)CCN(C)C)c(NC(=O)c2ccncn2)cc1Nc1nccc(-c2cn(C)c3ccccc23)n1,,,,242,
COc1cc(N(C)CCN(C)C)c(NC(=O)c2ccncn2)cc1Nc1nccc(-c2cn(CCCO)c3ccccc23)n1,,,,161,
COc1cc(N(C)CCN(C)C)c(NC(=O)c2ccnc(Cl)c2)cc1Nc1nccc(-c2cn(C)c3ccccc23)n1,,,,420,
COc1cc(N2CCC(N(C)C)CC2)c(NC(=O)CO)cc1Nc1nccc(-c2cn(C)c3ccccc23)n1,,,,,IC50 [6]: 480 nM; IC50 [7]: 460 nM
